# Data published in ChEMBL document CHEMBL1153593, “Recent developments in the design and synthesis of hybrid molecules based on aminoquinoline ring and their antiplasmodial evaluation” (Eur J Med Chem, 2009).
# How the values were obtained:
# [1] = Inhibition of Plasmodium falciparum falcipain-2
# [2] = system: Plasmodium berghei; assay: Gametocytocidal activity as infected mosquitoes against Plasmodium berghei at 10 uM/kg; format: functional
# [3] = system: Plasmodium berghei; assay: Gametocytocidal activity as oocysts per mosquito against Plasmodium berghei; format: functional
# [4] = Stability assessed as hydrolysis to metabolite in presence of 80% human plasma; format: ADME, cell-free
# [5] = system: Plasmodium falciparum; assay: Antimalarial activity against chloroquine-resistant Plasmodium falciparum W2; format: functional, organism-based
# [6] = system: Plasmodium falciparum; assay: Antimalarial activity against chloroquine-resistant Plasmodium falciparum K1; format: functional, organism-based
# [7] = system: Plasmodium falciparum; assay: microbe, parasite or virus in culture; details: D10
# Description: Antimalarial activity against chloroquine-sensitive Plasmodium falciparum D10
IC50 [1] [µM],Compound,IC50 [5] [µM],IC50 [6] [µM],IC50 [7] [µM],also measured
0.72,O=C(NCCNc1ccnc2cc(Cl)ccc12)N/N=C/c1ccc(O)c(CN2CCCC2)c1O,,,,
3.16,O=C(NCCNc1ccnc2cc(Cl)ccc12)N/N=C/c1ccc(O)c(CN2CCN(c3ccnc4cc(Cl)ccc34)CC2)c1O,,,,
> 20,NC(=O)N/N=C/c1ccc(O)c(CN2CCN(c3ccnc4cc(Cl)ccc34)CC2)c1O,,,,
2.25,NC(=S)N/N=C/c1ccc(O)c(CN2CCN(c3ccnc4cc(Cl)ccc34)CC2)c1O,,,,
2.6,CCN(CC)Cc1c(O)ccc(/C=N/NC(=O)NCCNc2ccnc3cc(Cl)ccc23)c1O,,,,
,COc1cc(NC(C)CCCN2C(=O)CNC23CCCCC3)c2ncccc2c1 (centres undefined),,,,Activity [2]: 25%; Activity [3]: 7.4; Stability [4]: Stable
> 20,CN1CCN(Cc2c(O)ccc(/C=N/NC(=O)NCCNc3ccnc4cc(Cl)ccc34)c2O)CC1,,,,
> 20,O=C(NCCNc1ccnc2cc(Cl)ccc12)N/N=C/c1ccc(O)c(CN2CCOCC2)c1O,,,,
,COc1cc(NC(C)CCCN2C(=O)CNC2(C)C)c2ncccc2c1 (centres undefined),,,,Activity [2]: 21%; Activity [3]: 6.1
0.63,O=C(NCCNc1ccnc2cc(Cl)ccc12)N/N=C/c1ccc(O)c(CN2CCCCC2)c1O,,,,
,CC(C)(C)C(=O)CN(CCCNc1ccnc2cc(Cl)ccc12)C(=O)c1cnccn1,1.65,2.29,1.38,
,CC(C)(C)NC(=O)C1(C)CCC(=O)N1CCCCCCNc1ccnc2cc(Cl)ccc12 (centres undefined),0.18,,,
,CC(C)(C)C(=O)CN(CCNc1ccnc2cc(Cl)ccc12)C(=O)c1cnccn1,1.19,1.13,0.712,
,O=C(CN(CCCNc1ccnc2cc(Cl)ccc12)C(=O)c1ccc(O)cc1O)C1CCCCC1,5.94,3.83,1.67,
,O=C(CN(CCNc1ccnc2cc(Cl)ccc12)C(=O)c1cnccn1)C1CCCCC1,> 10,1.35,0.793,
,O=C(CN(CCCNc1ccnc2cc(Cl)ccc12)C(=O)c1cnccn1)C1CCCCC1,0.877,0.521,0.242,
,O=C(CN(CCCNc1ccnc2cc(Cl)ccc12)C(=O)c1ccncc1)C1CCCCC1,1.57,0.073,0.237,
,COc1cc(NC(C)CCCN2C(=O)[C@@H](C(C)C)NC23CCCCCC3)c2ncccc2c1 (some centres undefined),,,,Activity [2]: 65%; Activity [3]: 17.7
,CC(C)(C)C(=O)CN(CCNc1ccnc2cc(Cl)ccc12)C(=O)c1ccncc1,0.991,1.1,1.06,
,COc1cc(NC(C)CCCN2C(=O)[C@@H](Cc3ccccc3)NC23CCCC3)c2ncccc2c1 (some centres undefined),,,,Activity [2]: 65%; Activity [3]: 51.6
,CC(C)(C)C(=O)CN(CCNc1ccnc2cc(Cl)ccc12)C(=O)c1ccc(O)cc1O,4.15,5.79,5.66,
,O=C(CN(CCNc1ccnc2cc(Cl)ccc12)C(=O)c1ccncc1)C1CCCCC1,0.619,0.531,0.54,
,CC(C)(C)C(=O)CN(CCCNc1ccnc2cc(Cl)ccc12)C(=O)c1ccncc1,3.81,18.2,> 20,
,COc1cc(NC(C)CCCN2C(=O)[C@@H](C)NC23CCCCC3)c2ncccc2c1 (some centres undefined),,,,Activity [2]: 20%; Activity [3]: 0.8
,COc1cc(NC(C)CCCN2C(=O)[C@@H](C(C)C)NC23CCCC3)c2ncccc2c1 (some centres undefined),,,,Activity [2]: 35%; Activity [3]: 4.2
,NC(=S)N/N=C1/C(=O)N(CCNc2ccnc3cc(Cl)ccc23)c2ccc(Cl)cc21,,0.054,0.095,

Compound,IC50 [1] [µM],IC50 [5] [µM],IC50 [6] [µM],IC50 [7] [µM],also measured
NC(=S)N/N=C1/C(=O)N(CCNc2ccnc3cc(Cl)ccc23)c2ccccc21,14.7,0.24,0.71,0.32,
CC1(C(=O)NC2CCCCC2)CCCC(=O)N1CCCCCCNc1ccnc2cc(Cl)ccc12 (centres undefined),17.6,0.096,,,
Cc1ccc2c(c1)/C(=N\NC(N)=S)C(=O)N2CCNc1ccnc2cc(Cl)ccc12,11.6,0.051,0.1,0.079,
